Source: patent US20150140088A1, “SPIROSTEROID SYSTEMS ACTING AS NEUROPROTECTIVE AND ANTI-INFLAMMATORY AGENTS” (priority 2011, published 2015)

System: PC12 cells exposed to L-glutamate
Assay: Anti-glutamatergic effect on PC12 cells exposed to L-glutamate (MTT cellular vitality)
Assay type: cell-based
Settings: 10 μM; PC12 cells exposed to L-glutamate (20 mM) for 24 h; result in words
Description: PC12 constitute a neuron-like cell line widely employed in several models of neurological diseases. The patophysiological mechanisms which can be simulated in those in vitro models, allows the use of PC12 cells in evaluation of therapeutic candidates.
The synthetic spirosteroids series (10 μM of each molecule) was evaluated on PC12 cells exposed to L-glutamate (20 mM) for 24 h. Previously, those cells were routinely cultivated in RPMI 1640 medium, supplemented with equine serum (10%) and fetal bovine serum (5%) in a 37° C. and 5% CO2 atmosphere. In the beginning of the experiment, cells were seeded in 96-well microplates at a cellular density of 150,000 cells/mL. After 24 h of exposition to glutamatergic damage and spirosteroids treatment, cellular vitality was determined with 3-(4,5-dimethylthiazol-2-yl)-2,5-diphenyltetrazolium bromide (MTT), which is metabolized by mitochondrial deshydrogenases in living cells. […] All molecules of the synthetic spirosteroids series were non cytotoxic at the concentration employed for the in vitro anti-glutamatergic assay (data no shown).

Structure (SMILES) | anti-glutamatergic and neuroprotector effect
C[C@@H]1CC[C@@]2(OC1)O[C@H]1C[C@H]3[C@@H]4CC(=O)C5CC(=O)CC[C@]5(C)[C@H]4CC[C@]3(C)[C@H]1[C@@H]2C (stereo partly drawn) [3,6-dione-(25R)-spirostan] | most active
C[C@@H]1CC[C@@]2(OC1)O[C@H]1C[C@H]3[C@@H]4CC(=O)C5C[C@H](O)[C@H](O)C[C@]5(C)[C@H]4CC[C@]3(C)[C@H]1[C@@H]2C (stereo partly drawn) [2α,3α-dyhydroxy-(25R)-spirostan-6-one] | most active
